Experimental data from patent publication US20240246954A1, “COMPOSITIONS AND METHODS FOR INHIBITING KRAS” (TheRas, Inc., priority 2021, published 2024).

Columns and labels:
[1] = system: pERK in GP2d cells (KRAS G12D); assay: Cell-based pERK HTRF assay; conditions: GP2d, 1 h, 60 min incubation
Experimental: Biological Example 3. Cell-Based pERK HTRF Assay
pERK assay (Perkin Elmer) was used to determine the effectiveness of compounds in disrupting KRAS G12D protein/effector signaling in cells.
On Day 1, cells (GP2d) were seeded into 96-well plates at 3×10^4 cells/well in 80 μl complete growth media (DMEM, 10% FBS).
On Day 2, cells were treated with compounds at 0.25% DMSO. The source plate was created with compounds diluted in media at 5-fold the final assay concentration. The compounds were run in a 9-point concentration curve starting at 1 μM, with a half-log dilution between concentrations. 20 μL was transferred onto the cell plates (final volume in wells was 100 μL). Plates were harvested after 60 min incubation by aspirating media and adding kit-supplied 1× supplemented lysis buffer to all wells (50 μl per well). Plates were then placed on a plate shaker and incubated at 850 rpm for an additional 30 min.
Antibody mixture solution is prepared by diluting aliquoted d2 and Eu Cryptate antibodies 1:20 in kit supplied detection buffer, mix the diluted antibodies solutions (1:1 v:v). Four μL of this solution is then added to a 384-well detection plate (Perkin Elmer; 6008230).
Samples were homogenized by pipetting up and down and then transferred (16 μL of cell lysates) from the 96-well cell culture plate to two wells of the HTRF 384-well detection plate containing the antibody solution. Plates were centrifuged (524 g for 1 min) and allowed to incubate between 4 and 24 h at room temperature. Maximum signal is reached after 4 h incubation time and remains stable over a period of 24 hours. Therefore, readings can be made between 4 and 24 h of incubation. Plates were centrifuged again (524 g for 1 min), then analyzed on the EnVision plate reader using the following settings: Excitation 320 nm, Bandwidth 75 nm; Emission 615 nm, Bandwidth 85 nm; Gain 100%; Flashes 100; Lag 60 μs.

[2] = target: T1, Avi-KRAS G12D/Q25A (1-169) GppNHp/3×FLAG-PI3KCA (157-299) (Homo sapiens, UniProt P01116, G12D/Q25A); assay: HTRF PI3KCA-KRAS G12D/Q25A-GppNHp disruption assay; type: biochemical; conditions: 1 h incubation
T1 construct: Avi-KRAS G12D/Q25A (1-169) GppNHp
T1 sequence (P01116 1-169 isoform P01116-2 G12D/Q25A limits assumed): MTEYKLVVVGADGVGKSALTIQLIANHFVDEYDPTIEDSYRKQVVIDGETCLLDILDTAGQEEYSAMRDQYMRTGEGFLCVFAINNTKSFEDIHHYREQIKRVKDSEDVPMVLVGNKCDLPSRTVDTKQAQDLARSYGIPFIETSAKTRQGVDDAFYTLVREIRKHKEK
In short: (§1)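 Compounds titrated from 100 μM in a 10-point series, incubated with protein mix 1 h at room temperature, then HTRF reagents a further 1 h. Time-resolved fluorescence read (excitation 320 nm, emission 615 nm); activity expressed as percentage of DMSO control.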

[3] = target: T2, Avi-KRAS G12D (1-169) GppNHp/RAF1 RBD-3×FLAG (52-151) (Homo sapiens, UniProt P01116, G12D); assay: HTRF Raf1-KRAS G12D-GppNHp disruption assay; type: biochemical; conditions: 1 h incubation
T2 construct: Avi-KRAS G12D (1-169) GppNHp
T2 sequence (P01116 1-169 isoform P01116-2 G12D limits assumed): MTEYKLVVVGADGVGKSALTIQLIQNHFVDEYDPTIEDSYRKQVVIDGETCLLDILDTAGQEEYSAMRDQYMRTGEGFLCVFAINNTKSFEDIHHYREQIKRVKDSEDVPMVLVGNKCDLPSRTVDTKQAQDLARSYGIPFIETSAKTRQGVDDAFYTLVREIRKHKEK
In short: as §1

| Structure (SMILES) | IC50 [1] | IC50 [2] | IC50 [3] |
| --- | --- | --- | --- |
| Nc1nc2c(-c3c(C(F)(F)F)cc4c(N5C[C@H]6CC[C@@H](C5)N6)nc(OC[C@@]56CCCN5C[C@H](F)C6)nc4c3O)ccc(F)c2s1 [Compound 343, 7-(2-amino-7-fluorobenzo[d]thiazol-4-yl)-4-((1R,5S)-3,8-diazabicyclo[3.2.1]octan-3-yl)-2-(((2R,7aS)-2-fluorotetrahydro-1H-pyrrolizin-7a(5H)-yl)methoxy)-6-(trifluoromethyl)quinazolin-8-ol] | > 1 µM | 10 to 30 µM | 10 to 30 µM |
| Nc1nc2c(-c3c(C(F)(F)F)cc4c(N5CC[C@H]6CCNC[C@H]65)nc(OCC56CCCN5CCC6)nc4c3F)ccc(F)c2s1 [Compound 348] | > 1 µM | 1 to 10 µM | 1 to 10 µM |
| Nc1nc2c(-c3c(C(F)(F)F)cc4c(N5CC6CC5CN6)nc(OC[C@@]56CCCN5C[C@H](F)C6)nc4c3F)ccc(F)c2s1 (stereo partly drawn) [Compound 226] | ≤ 0.1 µM | 0.1 to 1 µM | 0.1 to 1 µM |
| N#Cc1cc2c(N3CC4CCC(C3)N4)nc(OC[C@@]34CCCN3C[C@H](F)C4)nc2c(Cl)c1-c1ccc(F)c2sc(N)c(C#N)c12 [Compound 372] | 0.1 to 1 µM | 1 to 10 µM | 1 to 10 µM |
| CN(c1nc(OC[C@@]23CCCN2C[C@H](F)C3)nc2c(Cl)c(-c3ccc(F)c4sc(N)nc34)c(C(F)(F)F)cc12)[C@@H]1CCNC1 [Compound 314] | 0.1 to 1 µM | 1 to 10 µM | 0.1 to 1 µM |
| Nc1nc2c(-c3c(C(F)(F)F)cc4c(N5CC6CCCC(C5)N6)nc(OC[C@@]56CCCN5C[C@H](F)C6)nc4c3F)ccc(F)c2s1 [Compound 299] | ≤ 0.1 µM | 0.1 to 1 µM | 0.1 to 1 µM |
| CCN1[C@@H]2CC[C@H]1CN(c1nc(OC[C@@]34CCCN3C[C@H](F)C4)nc3c(F)c(-c4ccc(F)c5sc(N)nc45)c(C(F)(F)F)cc13)C2 [Compound 315, 4-(4-((1R,5S)-8-ethyl-3,8-diazabicyclo[3.2.1]octan-3-yl)-8-fluoro-2-(((2R,7aS)-2-fluorotetrahydro-1H-pyrrolizin-7a(5H)-yl)methoxy)-6-(trifluoromethyl)quinazolin-7-yl)-7-fluorobenzo[d]thiazol-2-amine] | 0.1 to 1 µM | 10 to 30 µM | 1 to 10 µM |
| N#Cc1c(N)sc2c(F)ccc(-c3c(OC(F)(F)F)cc4c(N5CC6CCC(C5)N6)nc(OC[C@@]56CCCN5C[C@H](F)C6)nc4c3F)c12 [Compound 320] | ≤ 0.1 µM | 0.1 to 1 µM | 0.1 to 1 µM |
| CN(c1nc(OC[C@@]23CCCN2C[C@H](F)C3)nc2c(F)c(-c3ccc(F)c4sc(N)c(C#N)c34)c(C#N)cc12)[C@@H]1CCNC1 [Compound 345, 7-(2-amino-3-cyano-7-fluorobenzo[b]thiophen-4-yl)-8-fluoro-2-(((2R,7aS)-2-fluorotetrahydro-1H-pyrrolizin-7a(5H)-yl)methoxy)-4-(methyl((R)-pyrrolidin-3-yl)amino)quinazoline-6-carbonitrile] | 0.1 to 1 µM | 0.1 to 1 µM | 0.1 to 1 µM |
| Nc1nc2c(-c3c(C(F)(F)F)cc4c(N[C@H]5C[C@H]6CNC[C@H]6C5)nc(OCC56CCCN5CCC6)nc4c3F)ccc(F)c2s1 [Compound 326] | > 1 µM | 1 to 10 µM | 1 to 10 µM |
| NC(=O)N1CC(Nc2nc(OCC34CCCN3CCC4)nc3c(F)c(-c4ccc(F)c5sc(N)nc45)c(C(F)(F)F)cc23)C1 [Compound 188] | > 1 µM | 1 to 10 µM | 0.1 to 1 µM |
| Nc1nc2c(-c3c(Cl)cc4c(N5CC6CC(C5)N6)nc(OCC56CCCN5CCC6)nc4c3F)ccc(F)c2s1 [Compound 184, 4-(4-(3,6-diazabicyclo[3.1.1]heptan-3-yl)-6-chloro-8-fluoro-2-((tetrahydro-1H-pyrrolizin-7a(5H)-yl)methoxy)quinazolin-7-yl)-7-fluorobenzo[d]thiazol-2-amine] | > 1 µM | 1 to 10 µM | 0.1 to 1 µM |
| CN(c1nc(OCC23CCCN2CCC3)nc2c(F)c(-c3ccc(F)c4sc(N)nc34)c(C(F)(F)F)cc12)C12CC(N)(C1)C2 [Compound 274] | 0.1 to 1 µM | 0.1 to 1 µM | 0.1 to 1 µM |
| Nc1nc2c(-c3c(C(F)(F)F)cc4c(N5CC[C@@H]6CNC[C@@H]65)nc(OC[C@@]56CCCN5C[C@H](F)C6)nc4c3F)ccc(F)c2s1 [Compound 351] | 0.1 to 1 µM | 0.1 to 1 µM | 0.1 to 1 µM |
| CN(c1nc(OC[C@@]23CCCN2C[C@H](F)C3)nc2c(F)c(-c3ccc(F)c4sc(N)nc34)c(C(F)(F)F)cc12)[C@H]1CNCC12CC2 [Compound 312] | 0.1 to 1 µM | 10 to 30 µM | 1 to 10 µM |
| CN(c1nc(OC[C@@]23CCCN2C[C@H](F)C3)nc2cc(-c3ccc(F)c4sc(N)c(C#N)c34)c(C(F)(F)F)cc12)[C@H]1CNC[C@@H]1F [Compound 356] | 0.1 to 1 µM | 1 to 10 µM | 1 to 10 µM |
| CN1CCC(Oc2nc(N3CC4CCC(C3)N4)c3cc(C(F)(F)F)c(-c4ccc(F)c5sc(N)nc45)c(F)c3n2)CC1 [Compound 340] | 0.1 to 1 µM | 1 to 10 µM | 1 to 10 µM |
| N#Cc1c(N)sc2c(F)ccc(-c3c(C(F)(F)F)cc4c(N5CC6CCC(C5)N6)nc(OC[C@@]56CCCN5C[C@H](F)C6)nc4c3F)c12 (single isomer, unassigned) [Compound 366] | ≤ 0.1 µM | ≤ 0.1 µM | ≤ 0.1 µM |
| CN(c1nc(OC[C@@]23CCCN2C[C@H](F)C3)nc2c(F)c(-c3ccc(F)c4sc(N)nc34)c(C(F)(F)F)cc12)C1CCNC1 (stereo in doubt) [Compound 322, 7-fluoro-4-(8-fluoro-2-(((2R,7aS)-2-fluorotetrahydro-1H-pyrrolizin-7a(5H)-yl)methoxy)-4-(methyl((R)-pyrrolidin-3-yl)amino)-6-(trifluoromethyl)quinazolin-7-yl)benzo[d]thiazol-2-amine] | 0.1 to 1 µM | 1 to 10 µM | 0.1 to 1 µM |
| Nc1nc2c(-c3c(C(F)(F)F)cc4c(N[C@H]5CCC6(CNC6)C5)nc(OCC56CCCN5CCC6)nc4c3F)ccc(F)c2s1 [Compound 335] | > 1 µM | 0.1 to 1 µM | 0.1 to 1 µM |
| N#Cc1c(O)cccc1-c1c(C(F)(F)F)cc2c(N3CC4CCC(C3)N4)nc(OCC34CCCN3CCC4)nc2c1F [Compound 341] | > 1 µM | 10 to 30 µM | 10 to 30 µM |
| N#Cc1c(N)sc2c(F)ccc(-c3c(C(F)(F)F)cc4c(N5C[C@H]6CC[C@@H](C5)N6)nc(N5CC(N6CC7(CC7)C6)C5)nc4c3F)c12 [Compound 363, 4-(2-(3-(5-azaspiro[2.3]hexan-5-yl)azetidin-1-yl)-4-((1R,5S)-3,8-diazabicyclo[3.2.1]octan-3-yl)-8-fluoro-6-(trifluoromethyl)quinazolin-7-yl)-2-amino-7-fluorobenzo[b]thiophene-3-carbonitrile] | ≤ 0.1 µM | 0.1 to 1 µM | 0.1 to 1 µM |
| CN(c1nc(OC[C@@]23CCCN2C[C@H](F)C3)nc2cc(-c3ccc(F)c4sc(N)nc34)c(C(F)(F)F)cc12)[C@H]1CNC[C@H]1F [Compound 354] | 0.1 to 1 µM | 0.1 to 1 µM | 0.1 to 1 µM |
| CN(c1nc(OC[C@@]23CCCN2C[C@H](F)C3)nc2c(F)c(-c3ccc(F)c4sc(N)c(C#N)c34)c(C(F)(F)F)cc12)[C@H]1CNC[C@@H]1F [Compound 355] | ≤ 0.1 µM | 1 to 10 µM | 0.1 to 1 µM |
| Fc1c(-c2ccc(F)c3sc(C(F)F)nc23)c(C(F)(F)F)cc2c(N3CC4CCC(C3)N4)nc(OC[C@@]34CCCN3C[C@H](F)C4)nc12 [Compound 339] | > 1 µM | 10 to 30 µM | 10 to 30 µM |
| CN(c1nc(OC[C@@]23CCCN2C[C@H](F)C3)nc2c(F)c(-c3ccc(F)c4sc(N)c(C#N)c34)c(C(F)(F)F)cc12)[C@H]1CNC[C@H]1F [Compound 353] | ≤ 0.1 µM | 0.1 to 1 µM | 0.1 to 1 µM |
| N#CCc1cc2c(NC3CNC3)nc(OCC34CCCN3CCC4)nc2c(F)c1-c1ccc(F)c2sc(N)nc12 [Compound 126] | > 1 µM | 1 to 10 µM | 1 to 10 µM |
| Nc1nc2c(-c3c(C(F)(F)F)cc4c(N5CC6COCC(C5)N6)nc(OC[C@@]56CCCN5C[C@H](F)C6)nc4c3F)ccc(F)c2s1 [Compound 300] | 0.1 to 1 µM | 0.1 to 1 µM | 0.1 to 1 µM |
